Source: patent US20250281483A1, “TRANSCRIPTION FACTOR EB ACTIVATORS AND USES THEREOF” (Astellas Engineered Small Molecules US, Incorporated, priority 2022, published 2025)
Like-named read-outs stand apart in the source and are kept apart here.

Molecular target: T1, TFEB (Homo sapiens, UniProt P19484)
T1 sequence (P19484 1-476): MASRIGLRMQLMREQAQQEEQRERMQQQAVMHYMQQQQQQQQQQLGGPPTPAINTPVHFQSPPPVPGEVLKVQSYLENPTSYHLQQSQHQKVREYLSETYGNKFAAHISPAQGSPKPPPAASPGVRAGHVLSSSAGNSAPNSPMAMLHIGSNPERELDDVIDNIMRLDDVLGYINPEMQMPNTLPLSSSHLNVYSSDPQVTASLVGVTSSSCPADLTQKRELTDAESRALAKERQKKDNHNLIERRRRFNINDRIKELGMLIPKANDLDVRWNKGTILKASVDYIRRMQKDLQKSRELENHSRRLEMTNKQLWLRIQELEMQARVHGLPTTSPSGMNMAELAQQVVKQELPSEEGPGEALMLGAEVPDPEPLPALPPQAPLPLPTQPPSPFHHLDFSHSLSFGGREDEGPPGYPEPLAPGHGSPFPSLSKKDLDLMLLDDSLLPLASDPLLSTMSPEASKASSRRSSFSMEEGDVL
Assay: Tfeb-Translocation Assay HEK-293T-oEX-Tfeb-GFP Cell Line
Assay type: cell-based
Details: HEK-293T-oEX-TFEB-GFP cells
Procedure: Tfeb-Translocation Assay HEK-293T-oEX-Tfeb-GFP Cell Line
• 1). Added 2×10^6 cell into a T75 flask with 15 mL DiVEM medium (with 10% FBS, 1% PS, 1×GLUTAMAX, 1×MEM NEAA, 1×HEPES Buffer Solution and 5 ug/mL blasticidin). • 2). Culturing for 48-72 hours. Cells in logarithmic growth phase were taken for experiment. The other cells were passaged as described in step 1. • 3). Seeded 1×10^4 cells/30 μL/well into 384-well plate (BD 356663). Cultured overnight at 37° C. & 5% CO2 incubator. • 4). Note: Used cells <10 passage
• 1). Compounds were firstly diluted by DMSO to the stock needed (10 mM), and aliquoted and stored at −20° C. • 2). Took one aliquot each time and made 3-fold or 2-fold dilutions as indicated, total 10 doses plus one DMSO control well in the source plate. • 3). Added 150 or 90 nL/well compounds solution to the assay plate by ECHO and incubated for 6 or 18 hours respectively at 37° C. & 5% CO2 incubator.
• 1). Added 30 uL 8% PFA into the wells and incubated 20 min at room temperature. • 2). Discarded the medium, washed the wells twice with DPBS to eliminate foam and bubbles in the well.
• 1). Diluted Hoechest-333824 in DPBS to get 2 μg/mL solution and added 30 uL/well into assay plate, incubated at room temperature for 20 mins. • 2). Discarded the supernatant, washed the wells twice with DPBS to eliminate foam and bubbles in the well. Then added DPBS 20 uL/well.
3). Scanned Plate by Operetta.
• 1). Reference compound: Torin 1 • 2). Test compounds: C1, C2, C3, C4, C5, C6. • 3). Diluted compounds in 384 LDV-dilution plate according to the dilution plate map • 4). Compounds starting concentration: Torin 1: 300 nM and Test compounds: 50 uM.
• 1). Selected all nucleus by Operetta as ‘All Cells’ • 2). Calculated the EGFP average intensity inside the Nucleus region. • 3). Selected population that the EGFP mean intensity inside the Nucleus region>background as the EGFP-positive cells • 4). Selected the Surrounding region of the nucleus and calculated the EGFP mean intensity of the region • 5). Inside the EGFP-positive cell population, selected the cells with EGFP mean intensity inside the Nucleus region/the EGFP mean intensity inside the surrounding region=1.2 (This ratio could be slightly adjusted from time to time) as the Translocation positive cell. • 6). Outputted the ratio of Translocation positive cell/EGFP-positive cells as the Translocation Positive Ratio. • 7). Each time set the ratio of DMSO group (Control Group) as ˜15% and then normalized the compound group to the DMSO group.

[1] = translocation positive cells ratio, read-out: TFEB Translocation EC50

Molecule | EC50 [1] [µM] | EC50 (reference compound, read-out: EC50 of reference compound (TFEB translocation)) [µM]
6-benzyl-2-methyl-N-((4-methyloxazol-2-yl)methyl)-5-oxo-5,6-dihydro-1,6-naphthyridine-3-carboxamide [Example 66] | 0.1 to 1 | –
Cc1nc2ccn(Cc3ccc(F)c(F)c3)c(=O)c2cc1C(=O)NCc1ccc(F)cn1 [Example 63, 6-(3,4-difluorobenzyl)-N-((5-fluoropyridin-2-yl)methyl)-2-methyl-5-oxo-5,6-dihydro-1,6-naphthyridine-3-carboxamide] | < 0.1 | –
Cc1nc(CNC(=O)c2cc3c(=O)n(Cc4ccc(Cl)cc4)ccc3nc2C)co1 [Example 80, 6-(4-chlorobenzyl)-2-methyl-N-((2-methyloxazol-4-yl)methyl)-5-oxo-5,6-dihydro-1,6-naphthyridine-3-carboxamide] | < 0.1 | –
Cc1cnc(Cn2ccc3nc(C)c(C(=O)NCc4ccccn4)cc3c2=O)o1 [Example 48, 2-methyl-6-((5-methyloxazol-2-yl)methyl)-5-oxo-N-(pyridin-2-ylmethyl)-5,6-dihydro-1,6-naphthyridine-3-carboxamide] | ≥ 10 | –
Cc1nc2ccn(-c3ccccc3)c(=O)c2cc1C(=O)NCc1ccccn1 [Example 46, 2-methyl-5-oxo-6-phenyl-N-(pyridin-2-ylmethyl)-5,6-dihydro-1,6-naphthyridine-3-carboxamide] | 1 to 10 | –
Cc1nc2ccn(Cc3ccccc3)c(=O)c2cc1C(=O)NCc1ccc(OC(C)C)cc1 [Example 67, 6-benzyl-N-(4-isopropoxybenzyl)-2-methyl-5-oxo-5,6-dihydro-1,6-naphthyridine-3-carboxamide] | ≥ 10 | –
Cc1nc2ccn(Cc3cnn(C)c3)c(=O)c2cc1C(=O)NCc1ccccn1 [Example 49, 2-methyl-6-((1-methyl-1H-pyrazol-4-yl)methyl)-5-oxo-N-(pyridin-2-ylmethyl)-5,6-dihydro-1,6-naphthyridine-3-carboxamide] | ≥ 10 | –
Cc1nc2ccn(Cc3ccccc3)c(=O)c2cc1C(=O)NCc1cncnc1 [Example 34, 6-benzyl-2-methyl-5-oxo-N-(pyrimidin-5-ylmethyl)-5,6-dihydro-1,6-naphthyridine-3-carboxamide] | 0.1 to 1 | –
Cc1nc(CNC(=O)c2cc3c(=O)n(Cc4cccc(F)c4)ccc3nc2C)co1 [Example 79, 6-(3-fluorobenzyl)-2-methyl-N-((2-methyloxazol-4-yl)methyl)-5-oxo-5,6-dihydro-1,6-naphthyridine-3-carboxamide] | < 0.1 | –
Cc1noc(CNC(=O)c2cc3c(=O)n(Cc4ccccc4)ccc3nc2C)n1 [Example 10, 6-benzyl-2-methyl-N-((3-methyl-1,2,4-oxadiazol-5-yl)methyl)-5-oxo-5,6-dihydro-1,6-naphthyridine-3-carboxamide] | 0.1 to 1 | –
Cc1nc2ccn(Cc3ccccc3)c(=O)c2cc1C(=O)NCc1ccc(Cl)cn1 [Example 38, 6-benzyl-N-((5-chloropyridin-2-yl)methyl)-2-methyl-5-oxo-5,6-dihydro-1,6-naphthyridine-3-carboxamide] | < 0.1 | –
Nc1nc2ccn(Cc3ccccc3)c(=O)c2cc1C(=O)NCc1ccccn1 [Example 74, 2-amino-6-benzyl-5-oxo-N-(pyridin-2-ylmethyl)-5,6-dihydro-1,6-naphthyridine-3-carboxamide] | 1 to 10 | –
Cc1ccc(CNC(=O)c2cc3c(=O)n(Cc4ccc(F)cn4)ccc3nc2C)o1 [Example 2, 6-((5-fluoropyridin-2-yl)methyl)-2-methyl-N-((5-methylfuran-2-yl)methyl)-5-oxo-5,6-dihydro-1,6-naphthyridine-3-carboxamide] | 0.1 to 1 | –
COCCOCCOCCn1ccc2nc(C)c(C(=O)NCc3ccc(Cl)cn3)cc2c1=O [Example 59, N-((5-chloropyridin-2-yl)methyl)-6-(2-(2-(2-methoxyethoxy)ethoxy)ethyl)-2-methyl-5-oxo-5,6-dihydro-1,6-naphthyridine-3-carboxamide] | ≥ 10 | –
Cc1ccc(Cn2ccc3nc(C)c(C(=O)NCc4ccccn4)cc3c2=O)cc1 [Example 54, 2-methyl-6-(4-methylbenzyl)-5-oxo-N-(pyridin-2-ylmethyl)-5,6-dihydro-1,6-naphthyridine-3-carboxamide] | < 0.1 | –
Cc1nc2ccn(Cc3ccccc3)c(=O)c2cc1C(=O)NCc1cccs1 [Example 71, 6-benzyl-2-methyl-5-oxo-N-(thiophen-2-ylmethyl)-5,6-dihydro-1,6-naphthyridine-3-carboxamide] | 0.1 to 1 | –
Cc1nc2ccn(Cc3cccnc3)c(=O)c2cc1C(=O)NCc1ccc(Cl)cc1 [Comparator 1, reference compound] | 1 to 10 | –
Cc1nc2ccn(Cc3ccccc3)c(=O)c2cc1C(=O)NCc1ncccc1F [Example 36, 6-benzyl-N-((3-fluoropyridin-2-yl)methyl)-2-methyl-5-oxo-5,6-dihydro-1,6-naphthyridine-3-carboxamide] | 1 to 10 | –
COCCn1ccc2nc(C)c(C(=O)NCc3ccccn3)cc2c1=O [Example 30, 6-(2-methoxyethyl)-2-methyl-5-oxo-N-(pyridin-2-ylmethyl)-5,6-dihydro-1,6-naphthyridine-3-carboxamide] | 1 to 10 | –
Cc1ccc(CNC(=O)c2cc3c(=O)n(Cc4ccccc4)ccc3nc2C)cc1 [Example 68, 6-benzyl-2-methyl-N-(4-methylbenzyl)-5-oxo-5,6-dihydro-1,6-naphthyridine-3-carboxamide] | 0.1 to 1 | –
Cc1nc2ccn(CC3CCCCC3)c(=O)c2cc1C(=O)NCc1ccccn1 [Example 40, 6-(cyclohexylmethyl)-2-methyl-5-oxo-N-(pyridin-2-ylmethyl)-5,6-dihydro-1,6-naphthyridine-3-carboxamide] | ≥ 10 | –
Cc1nc2ccn(Cc3ccc(F)c(F)c3)c(=O)c2cc1C(=O)NCc1ccccn1 [Example 61, 6-(3,4-difluorobenzyl)-2-methyl-5-oxo-N-(pyridin-2-ylmethyl)-5,6-dihydro-1,6-naphthyridine-3-carboxamide] | < 0.1 | –
CCC(=O)N1CCN(c2ccc(-n3c(=O)ccc4cnc5ccc(-c6cnc7ccccc7c6)cc5c43)cc2C(F)(F)F)CC1 [Torin 1, reference compound] | – | 0.0283
Cc1nc(CNC(=O)c2cc3c(=O)n(Cc4cc(F)cc(F)c4)ccc3nc2C)co1 [Example 81, 6-(3,5-difluorobenzyl)-2-methyl-N-((2-methyloxazol-4-yl)methyl)-5-oxo-5,6-dihydro-1,6-naphthyridine-3-carboxamide] | < 0.1 | –
Cc1nc2ccn(Cc3ccccc3)c(=O)c2cc1C(=O)NC(C)c1ccccn1 (stereo not shown) [Example 28, 6-benzyl-2-methyl-5-oxo-N-(1-(pyridin-2-yl)ethyl)-5,6-dihydro-1,6-naphthyridine-3-carboxamide] | ≥ 10 | –
Cc1nc2ccn(Cc3ccccc3F)c(=O)c2cc1C(=O)NCc1ccccn1 [Example 56, 6-(2-fluorobenzyl)-2-methyl-5-oxo-N-(pyridin-2-ylmethyl)-5,6-dihydro-1,6-naphthyridine-3-carboxamide] | 0.1 to 1 | –
COc1ccc(CNC(=O)c2cc3c(=O)n(Cc4ccccc4)ccc3nc2C)cc1 [Example 24, 6-benzyl-N-(4-methoxybenzyl)-2-methyl-5-oxo-5,6-dihydro-1,6-naphthyridine-3-carboxamide] | 1 to 10 | –
Cc1nc2ccn(CC3CCO3)c(=O)c2cc1C(=O)NCc1ccc(Cl)cc1 (stereo not shown) [Example 27, N-(4-chlorobenzyl)-2-methyl-6-(oxetan-2-ylmethyl)-5-oxo-5,6-dihydro-1,6-naphthyridine-3-carboxamide] | 1 to 10 | –
